Results on 9 molecules are retold here after article PMC9635829 (Science Advances, 2022).

The target in test [1] is T1, OdinAK (AdkA1) (Candidatus Odinarchaeum yellowstonii, UniProt A0AAF0D2B2).
T1 sequence (A0AAF0D2B2 1-198): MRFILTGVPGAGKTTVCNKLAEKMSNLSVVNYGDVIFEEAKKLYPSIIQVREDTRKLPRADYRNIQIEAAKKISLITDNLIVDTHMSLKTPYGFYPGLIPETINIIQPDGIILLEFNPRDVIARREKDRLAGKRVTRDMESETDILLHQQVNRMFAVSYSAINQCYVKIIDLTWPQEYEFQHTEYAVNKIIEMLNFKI
Put plainly: ITC. It counts as binding.

In test [2] the target is T1, OdinAK (AdkA1). Put plainly: X-ray crystal structure. It counts as binding. Conditions: ATP/AMP-mimicking inhibitor, spans both substrate sites.
Test [3] concerns the target adenylate kinase from Odinarchaeota (OdinAK), wild type (Odinarchaeota). Put plainly: SEC-MALS.
The target of test [4] is T1, OdinAK (AdkA1). Description: […] real-time NMR. The test is classed as biochemical. Particulars: 65 °C, 1 mM ATP (or other NTP), 300 μM AMP, 5 mM MgCl2, pH 7.0.

For `Nc1ncnc2c1ncn2[C@@H]1O[C@H](COP(=O)(O)OP(=O)(O)OP(=O)(O)O)[C@@H](O)[C@H]1O` [ATP], binding in test [1] was put at a Kd of 0.3 ± 0.1 µM.

Regarding `O=c1ccn([C@@H]2O[C@H](COP(=O)(O)OP(=O)(O)OP(=O)(O)O)[C@@H](O)[C@H]2O)c(=O)[nH]1` [UTP], the Kd (in general, a measure of binding affinity in units of concentration) in test [1] amounted to 4.6 ± 0.5 µM. This Kd is about 15-fold higher than that of the molecule before.

`Nc1ccn([C@@H]2O[C@H](COP(=O)(O)OP(=O)(O)OP(=O)(O)O)[C@@H](O)[C@H]2O)c(=O)n1` [CTP] registered a Kd in test [1] of 28.7 ± 7 µM.

Regarding `Nc1ncnc2c1ncn2[C@@H]1O[C@H](COP(=O)(O)OP(=O)(O)OP(=O)(O)OP(=O)(O)OP(=O)(O)OC[C@H]2O[C@@H](n3cnc4c(N)ncnc43)[C@H](O)[C@@H]2O)[C@@H](O)[C@H]1O` [Ap5A, P^1,P^5-di(adenosine-5′) pentaphosphate], the X-ray crystal structure result in test [2] is on record as “we determined the crystal structure of the enzyme in complex with the tight binding”.

As to `Nc1ncnc2c1ncn2[C@@H]1O[C@H](COP(=O)(O)OP(=O)(O)O)[C@@H](O)[C@H]1O` [ADP], binding in test [1] was characterised by a dissociation constant (Kd) of 0.8 ± 0.1 µM.

“adenylate kinase from Odinarchaeota (OdinAK), wild type (enzyme)”: the stoichiometry N (usually the number of molecules, sites or subunits per partner or assembly) in test [3] came to 3.

`Cc1cn([C@H]2C[C@H](O)[C@@H](COP(=O)(O)OP(=O)(O)OP(=O)(O)O)O2)c(=O)[nH]c1=O` [dTTP]: the affinity in test [1], expressed as Kd, was 24.2 ± 8 µM.

For `Nc1ncnc2c1ncn2[C@@H]1O[C@H](COP(=O)(O)O)[C@@H](O)[C@H]1O` [AMP], in test [4], the “31P real-time NMR” value was “OdinAK can use GTP and all other NTPs as substrate for phosphorylation of AMP”.

In the case of `Nc1nc2c(ncn2[C@@H]2O[C@H](COP(=O)(O)OP(=O)(O)OP(=O)(O)O)[C@@H](O)[C@H]2O)c(=O)[nH]1` [GTP], binding in test [1] was characterised by a dissociation constant (Kd) of 7.2 ± 0.6 µM.
